Among the test systems are A549 NSCLC; HOP-62 NSCLC; MDA-MB-435; RXF 393 renal; SF-295 CNS; SK-OV-3 ovarian; SNB-75 CNS; T-47D breast; HCT-116 colon; UACC-62 melanoma.
What all share (assay): inhibition of tumour cell growth, NCI panel, 48 h

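96-well plates; 48 h exposure; 5 concentrations. Endpoints by linear interpolation between flanking doses. Not reached: highest tested concentration assigned. Abbreviation: GI50, concentration required for 50% inhibition of growth. TGI: total growth inhibition.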 Bounds are passed on as bounds.

On to `Cc1cc(NCCCCNc2ccnc3cc(Cl)ccc23)nc(Nc2ccc(C(=O)N3CCCCC3)cc2)n1`, for which the GI50 in the assay with A549 NSCLC was 2510 nM; in the assay with HOP-62 NSCLC, 2090 nM; with MDA-MB-435, 1820 nM; in the assay on RXF 393 renal, 1240 nM; in the assay with SF-295 CNS, 1670 nM; in the assay on SK-OV-3 ovarian it was 2780 nM. Also, the GI50 was 1720 nM in the assay on SNB-75 CNS and 2520 nM in the assay with T-47D breast. For the same compound, the TGI is 5470 nM in the assay with A549 NSCLC; 4200 nM in the assay on HOP-62 NSCLC; 3420 nM with MDA-MB-435; 2730 nM in the assay on RXF 393 renal; 3250 nM with SF-295 CNS; 6130 nM in the assay on SK-OV-3 ovarian. Also, the TGI with SNB-75 CNS worked out at 3290 nM; in the assay with T-47D breast it was 5940 nM.

In the case of `Cc1sc2c(c1C)C(c1ccc(Cl)cc1)=N[C@@H](CC(=O)Nc1ccc(OCCOCCOCCOCCNc3cccc4c3C(=O)N(C3CCC(=O)NC3=O)C4=O)cc1)c1nnc(C)n1-2` (stereo partly specified), the GI50 is 338 nM in the assay on A549 NSCLC; less than 10 nM with HOP-62 NSCLC; less than 45.3 nM in the assay on MDA-MB-435; 803 nM with RXF 393 renal; 234 nM in the assay on SF-295 CNS; 306 nM in the assay on SK-OV-3 ovarian. In addition, the GI50 with SNB-75 CNS was less than 10 nM; with UACC-62 melanoma it was less than 46.2 nM. Besides, the TGI in the assay with A549 NSCLC is greater than 100000 nM; in the assay with HCT-116 colon it was greater than 100000 nM; with HOP-62 NSCLC, greater than 100000 nM; in the assay with MDA-MB-435 it was greater than 100000 nM; in the assay on RXF 393 renal, 48500 nM; in the assay with SF-295 CNS it was greater than 100000 nM. Besides, the TGI is greater than 31600 nM in the assay with SK-OV-3 ovarian and greater than 100000 nM in the assay on UACC-62 melanoma.

Consider `COC(=O)[C@]12CC[C@@H](C)[C@H](C)[C@@H]1C1=CC[C@@H]3[C@@]4(C)C(C=O)=C[C@@](C)(COC(=O)c5ccco5)[C@@H]4[C@H](O)C[C@@]3(C)[C@]1(C)CC2`, for which the GI50 is 3510 nM in the assay with A549 NSCLC; 1190 nM in the assay on HCT-116 colon; 2160 nM in the assay with HOP-62 NSCLC; 1950 nM in the assay on SF-295 CNS; 3640 nM with SK-OV-3 ovarian; 1490 nM with SNB-75 CNS. The GI50 with T-47D breast is 2370 nM; in the assay with UACC-62 melanoma it was 382 nM. The TGI came to 16200 nM in the assay with A549 NSCLC; 2590 nM in the assay with HCT-116 colon; 6070 nM in the assay with HOP-62 NSCLC; 4690 nM in the assay with SF-295 CNS; 18300 nM in the assay with SK-OV-3 ovarian; 4120 nM in the assay with SNB-75 CNS. Also, the results for the TGI in the assay on T-47D breast and in the assay with UACC-62 melanoma were 39500 nM and 2220 nM, respectively.

As for `NCCCOc1cc2ccccc2cc1C(=O)NCCCOc1cc2ccccc2cc1C(=O)Nc1ccc(Cl)cc1O`, the GI50 in the assay with A549 NSCLC was 198 nM; in the assay on HCT-116 colon it was 190 nM; in the assay with HOP-62 NSCLC, 340 nM; with MDA-MB-435, 899 nM; in the assay on RXF 393 renal, 240 nM; in the assay on SNB-75 CNS it was 455 nM. Further, the GI50 in the assay with T-47D breast is 1880 nM; in the assay with UACC-62 melanoma it was 1580 nM. For the same compound, the TGI with A549 NSCLC amounted to 383 nM; in the assay with HCT-116 colon, 374 nM; in the assay on HOP-62 NSCLC it was 1140 nM; in the assay with MDA-MB-435, 2600 nM; in the assay on RXF 393 renal, 928 nM; with SNB-75 CNS it was 1020 nM. Moreover, the TGI worked out at 4240 nM with T-47D breast and 3530 nM in the assay on UACC-62 melanoma.

In the case of `Cn1cc(-c2csc(-c3cn(C)c4ccc(F)cc34)n2)c2cnccc21`, the GI50 is 1670 nM in the assay with A549 NSCLC; 1660 nM in the assay on HCT-116 colon; 1920 nM in the assay on HOP-62 NSCLC; 1670 nM in the assay on MDA-MB-435; 1610 nM in the assay on RXF 393 renal; 1710 nM in the assay on SF-295 CNS. The GI50 in the assay with SK-OV-3 ovarian is 2030 nM; with SNB-75 CNS, 1400 nM; in the assay on UACC-62 melanoma it was 1740 nM. The TGI in the assay on A549 NSCLC was 3270 nM; in the assay on HCT-116 colon, 3060 nM; with HOP-62 NSCLC, 3490 nM; in the assay on MDA-MB-435, 3100 nM; in the assay with RXF 393 renal it was 3050 nM; with SF-295 CNS, 3230 nM. The TGI was 3750 nM in the assay on SK-OV-3 ovarian, 2740 nM in the assay with SNB-75 CNS and 3200 nM with UACC-62 melanoma.

On to `COc1ccc(-c2cc(-c3ccc(Nc4ccnc5cc(Cl)ccc45)cc3)nc(N3CCOCC3)n2)cc1`, for which the GI50 was 2960 nM with HCT-116 colon; 2920 nM in the assay on MDA-MB-435; 2210 nM with RXF 393 renal; 34800 nM in the assay with SK-OV-3 ovarian; 1520 nM with SNB-75 CNS. Moreover, the TGI with HCT-116 colon was greater than 100000 nM; with MDA-MB-435, greater than 100000 nM; in the assay on RXF 393 renal it was 5350 nM; in the assay on SK-OV-3 ovarian it was greater than 100000 nM; in the assay with SNB-75 CNS, 5320 nM.

Regarding `COc1cc(/C=C2\CCC/C(=C\c3ccc(OCC4CO4)c(OC)c3)C2=O)ccc1OCC1CO1` (stereo unspecified), the GI50 in the assay with A549 NSCLC is 2140 nM; in the assay on HCT-116 colon it was 1850 nM; in the assay with HOP-62 NSCLC, 3380 nM; in the assay on RXF 393 renal, 1600 nM; with SF-295 CNS it was 4350 nM; with SK-OV-3 ovarian it was 3540 nM. The GI50 is 2920 nM in the assay with SNB-75 CNS, 2980 nM in the assay with T-47D breast and 2020 nM in the assay with UACC-62 melanoma. The TGI in the assay on A549 NSCLC stood at 5090 nM; in the assay with HCT-116 colon, 6010 nM; in the assay with HOP-62 NSCLC, 9590 nM; in the assay with RXF 393 renal, 3050 nM; in the assay with SF-295 CNS, 84400 nM; in the assay on SK-OV-3 ovarian, 10700 nM. The results for the TGI with SNB-75 CNS, in the assay with T-47D breast and in the assay with UACC-62 melanoma were 19100 nM, 12200 nM and 4800 nM, respectively.

With `C=C1C(=O)OC2C1CC(OC(C)=O)/C(C)=C/CCC1(C)OC21` (stereo unspecified), the TGI in the assay on A549 NSCLC, in the assay on HCT-116 colon, in the assay on MDA-MB-435, with SF-295 CNS, in the assay with SK-OV-3 ovarian and in the assay with SNB-75 CNS was greater than 100000 nM throughout. Besides, the TGI with T-47D breast and with UACC-62 melanoma was greater than 100000 nM throughout.

Regarding `O=C(NNc1cnccn1)c1nc2cc(F)ccc2n2cccc12`, the GI50 with A549 NSCLC was 542 nM; in the assay with HCT-116 colon, 460 nM; with HOP-62 NSCLC it was 364 nM; in the assay on MDA-MB-435, 873 nM; with SF-295 CNS it was 531 nM; in the assay on SK-OV-3 ovarian it was 522 nM. Besides, the GI50 is 1310 nM in the assay on SNB-75 CNS, 385 nM with T-47D breast and 700 nM in the assay on UACC-62 melanoma. Further, the TGI in the assay on A549 NSCLC, in the assay with HCT-116 colon, in the assay with HOP-62 NSCLC, with MDA-MB-435, in the assay with SF-295 CNS and with SK-OV-3 ovarian was greater than 100000 nM each time. The TGI was greater than 30400 nM in the assay with SNB-75 CNS, greater than 100000 nM with T-47D breast and greater than 100000 nM with UACC-62 melanoma.

(Values after PubChem BioAssay (NCI).)
